Experimental findings from patent US20210230179A1, “THIENO[2,3-B]PYRIDINE DERIVATIVES AS EPAC INHIBITORS AND THEIR PHARMACEUTICAL USES” (INSTITUT NATIONAL DE LA SANTE ET DE LA RECHERCHE MEDICALE …, priority 2018, published 2021) are described below.

The structures appear in SMILES notation. Residue numbers refer to the chain shown, from its start.

Experiment [1] concerns the target T1, Epac1-BRET sensor CAMYEL (Homo sapiens, UniProt O95398, F824A/T823A).
T1 construct: made in house; host or cells: Prokaryotic expression vector pQE30-CAMYEL; used as cell extract
T1 sequence (O95398 191-923 T823A/F824A limits assumed): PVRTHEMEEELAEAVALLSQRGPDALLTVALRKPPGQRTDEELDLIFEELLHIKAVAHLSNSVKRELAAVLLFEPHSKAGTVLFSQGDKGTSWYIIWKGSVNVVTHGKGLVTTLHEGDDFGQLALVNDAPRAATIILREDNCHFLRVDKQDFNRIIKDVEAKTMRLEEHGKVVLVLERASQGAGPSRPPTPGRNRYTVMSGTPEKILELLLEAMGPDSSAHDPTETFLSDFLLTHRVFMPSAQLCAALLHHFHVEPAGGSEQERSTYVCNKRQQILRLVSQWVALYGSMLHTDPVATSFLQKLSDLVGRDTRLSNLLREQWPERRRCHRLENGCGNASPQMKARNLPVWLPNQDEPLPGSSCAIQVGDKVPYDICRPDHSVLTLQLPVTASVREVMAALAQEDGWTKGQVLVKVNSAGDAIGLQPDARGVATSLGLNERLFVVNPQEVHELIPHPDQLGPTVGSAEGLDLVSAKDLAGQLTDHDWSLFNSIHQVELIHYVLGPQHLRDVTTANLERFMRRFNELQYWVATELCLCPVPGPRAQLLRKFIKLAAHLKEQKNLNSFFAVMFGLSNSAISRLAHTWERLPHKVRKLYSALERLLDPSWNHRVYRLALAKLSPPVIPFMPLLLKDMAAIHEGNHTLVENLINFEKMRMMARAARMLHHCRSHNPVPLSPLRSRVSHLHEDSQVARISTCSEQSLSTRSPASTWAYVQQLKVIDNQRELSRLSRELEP
The experiment in a line: CAMYEL Epac1-BRET sensor assay (cAMP-induced conformational change). Format: biochemical. The following applies: not modified by increasing concentrations of cAMP. On the technique in general: Bioluminescence resonance energy transfer reports proximity on the nanometre scale.

Experiment [2] concerns the target T2, Epac1 (Homo sapiens, UniProt O95398).
T2 sequence (O95398 191-923 limits assumed): T1 sequence (O95398 191-923 T823A/F824A limits assumed) with A633T, A634F
The experiment in a line: biochemical. The note with it: 30 μM Sp-8-CPT, 20 μM inhibitor. From the text: FIGS. 4-8. […] Variations of relative fluorescence units (RFU) were studied as a function of time and fitted to single exponentials.

Experiment [3] has as its system mice. The note with it: single i.v. bolus 8 mg/kg 5 min before reperfusion; 45 min occlusion, 24 h reperfusion.
Method: Statistical significance was determined by two-way ANOVA followed by Bonferroni post-test or t-test. *p<0.01, **p<0.01, ***p<0.001, versus indicated values
Mice were anesthetized with intraperitoneal ketamine (60 mg/kg) and xylazine (6 mg/kg), intubated and ventilated mechanically. Anesthesia was maintained throughout the chirurgical procedure with 1.5% isoflurane. Body temperature was maintained at 37° C. A left thoracotomy was performed in order to enable coronary artery occlusion with a 7-0 Prolene thread placed around the left coronary artery for 45 min, followed by 24 h of reperfusion. […] Myocardial ischemia was confirmed by the presence of regional cyanosis. Reperfusion was confirmed by visualization of a hyperemic response. At this point, the chest was closed in layers. 24 h after reperfusion, mice were anesthetized again, the coronary artery was reoccluded at the previous site, and the heart was excised after Evans blue perfusion. The area at risk and the infarct area were respectively determined by Evans blue and 2,3,5-triphenyltetrazolium chloride (TTC) staining. The area at risk was identified as the non-blue region and expressed as a percentage of the left ventricle weight. The infarcted area was identified as the TTC negative zone and expressed as a percentage of area at risk.

As to `C[C@@H]1CCc2c(cc(Br)c(F)c2Br)N1C=O` [(R)-CE3F4, reference compound], the “IC50 (half-maximal inhibitory concentration), BRET sensor” value in experiment [1] is recorded as “lower IC50 than AM-001”. The “effect on Epac1 GEF (exchange) activity” value in experiment [2] is recorded as “reduced”. In addition, the “ratio of infarct size to area-at-risk” value in experiment [3] is listed as “failed to reduce infarct size”.
